Assay results as given in BindingDB's records for doi:10.7270/Q22R3Q30 (Nmmlsc, 2009).

Target: Cell division control protein 42 homolog (Homo sapiens, UniProt P60953)
Assay: Cdc42 activated mutant GTP-binding inhibitors, SAR follow-up, biochemical, bead-based multiplex flow cytometry, additional SAR set (AID 2021)

Sequence of Cell division control protein 42 homolog (P60953 whole entry): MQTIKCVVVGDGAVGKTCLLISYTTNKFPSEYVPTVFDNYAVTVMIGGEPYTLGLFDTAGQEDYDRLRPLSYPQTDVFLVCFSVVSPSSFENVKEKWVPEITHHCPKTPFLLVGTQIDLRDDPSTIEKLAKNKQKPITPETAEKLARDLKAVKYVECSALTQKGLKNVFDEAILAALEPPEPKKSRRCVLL

Row | Ki [µM] | Compound
1 | 0.81 | O=C1NC(=O)/C(=C2/C(=O)Nc3ccccc32)N1
2 | 8.52 | O=C1N=c2c(Br)cccc2=C1c1[nH]c2ccccc2c1NO [7-bromanyl-3-[3-(oxidanylamino)-1H-indol-2-yl]indol-2-one]
